Experimental data published in US20250333708A1, “MANIPULATING NEPHRON DIFFERENTIATION RATE IN INDUCED HUMAN PLURIPOTENT STEM CELL ORGANOIDS AND TISSUES BY ENGINEERING MECHANICS OF THE MICROENVIRONMENT” (THE TRUSTEES OF THE UNIVERSITY OF PENNSYLVANIA, priority 2022, published 2025).

Tests used:
[1] = tested on: day 9 metanephric mesenchyme spheroids (human iPSC-derived nephron progenitors); test: Nephron progenitor spheroid differentiation assay (SIX2 / LHX1 immunofluorescence); type: cell-based; settings: 48 hr; for LHX1+ early nephron cells in spheroids (marker positive pixel area as % of projection area): single agent in FGF9 basal media, 3 μM CHIR or 10 μM Y27632; for LHX1+ early nephron cells in spheroids, agent combined with CHIR: 3 μM CHIR plus 10 μM Y27632 or 30 μM blebbistatin
Procedure: We then decided to mimic the reduction in anisotropic stress that occurs over the tip life-cycle in vivo by adding the ROCK inhibitor Y-27632 or the non-muscle myosin II inhibitor blebbistatin to day 9 metanephric mesenchyme spheroids for 48 hr. These temporal parameters were optimized to capture early transitions of cells through the SIX2+ state and to accumulate differentiation events sparsely, enabling quantification. Spheroids were analyzed by immunofluorescence for SIX2 and the pre-tubular aggregate/renal vesicle (early nephron) marker LHX1 (FIG. 6E). […] These LHX1+ cells clustered and began to express the later medial nephron marker Jag1, indicating appropriate progression of differentiation after perturbation (FIG. 6D).
Nephron progenitor spheroid differentiation assays. Day 9 cap mesenchyme-stage nephron progenitors were lifted with Accutase and re-plated at 50,000 cells per well in 96-well ultra low attachment round-bottom plates (Corning 7007) in Advanced RPMI 1640 Medium, Glutamax, 1× Penn/Strep and 10 ng ml^−1 FGF9 (“basal media”) plus the specified perturbation conditions, which included 3 μM CHIR, 10 μM Y27632 (StemCell Technologies, 72304) from a 10 mM stock in DMSO, and/or 30 μM(S) (S)-(−)-blebbistatin (Tocris, 1852) from a 30 mM stock in DMSO. Cells were then aggregated by plate centrifugation at 300 g for 30 s. After 48 hr in culture, spheroids were collected and transferred to 1.7 mL tubes using a p200 pipette tip widened by cutting the tip to size with a razor blade. Excess media was removed and spheroids were fixed in ice-cold 4% paraformaldehyde in PBS for 15 min. Spheroids were then stained for immunofluorescence microscopy similar to kidneys (see Kidney immunofluorescence imaging.) via primary and secondary antibody incubation for 48 hr each at 4 C and washes in PBSTX totaling 6 hours. Primary antibodies and dilutions included mouse anti-Lhx1 (1:50, 4F2, Developmental Studies Hybridoma Bank, University of Iowa, RRID: AB_531784) and rabbit anti-Six2 (1:600, 11562-1-AP, Proteintech, RRID: AB_2189084). Spheroids were then incubated in 1 μg ml^−1 DAPI in PBS at 4 C for 1 hr before washing once in ice-cold PBS. Spheroids were transferred for imaging using a widened p200 pipette tip to a cover-slip bottom 24-well plate (Greiner 662892). Excess PBS was removed and spheroids were incubated with ˜20 μl of FocusClear (Cedarlane Labs, FC-101) for 20 min at room temperature prior to confocal imaging. Spheroids were imaged using 5 μm z-steps.
Quantification of spheroid cell differentiation. Maximum intensity projections of spheroids were generated and further processed in FIJI. DAPI signal was used to segment spheroids and calculate their areas in number of pixels. SIX2 and LHX1 signal was segmented using 50 pix rolling ball background subtraction and thresholding to remove background signal. The total numbers of SIX2+ and LHX1+ pixels were then divided by the total number of DAPI+ pixels to normalize positive pixels by spheroid area.

[2] = tested on: day 9 iPSC-derived metanephric mesenchyme; test: CHIR effect on day 9 iPSC-derived metanephric mesenchyme (substrate release and compaction); type: cell-based, human; settings: day 9 cells, CHIR pulse; ascribed to collective cell contractility rather than motility
Text: We next turned to a bottom-up approach using human iPSC-derived nephron progenitor organoids to assess the effects of mechanical microenvironment changes on nephron differentiation (FIG. 6B). When differentiated, these roughly mimic the progression in transcriptional states and marker expression profiles of mouse nephron progenitors in vivo, despite some species-specific differences (61-65). To test perturbations to cell collective tension during nephron progenitor commitment, we first differentiated PSCs through late primitive streak and posterior intermediate mesoderm (PIM) lineages to metanephric mesenchyme according to established protocols (66), confirming by qPCR (FIG. 10). We also validated that induced metanephric mesenchyme cells go on to form later nephron structures including ECAD+tubules containing GATA3+ distal nephron cells and Na^+/[…]/2Cl^− cotransporter SLC12A1+ loop of Henle cells after 21 days in culture (FIG. 6C). Day 9 induced metanephric mesenchyme cells were dissociated and plated into low-attachment round-bottom plates where they formed spheroids that we assayed for early nephrogenesis (FIG. 6D). In similar assays, a CHIR pulse is typically applied after re-aggregation of cells to mimic Wnt9b-driven β-catenin signaling during nephron progenitor commitment in vivo (61,62,67,68). […]

[3] = tested on: Rho-associated protein kinase (ROCK); settings: cited from earlier work

SMILES | LHX1+ early nephron cells in spheroids (marker positive pixel area as % of projection area) [1] | LHX1+ early nephron cells in spheroids, agent combined with CHIR [1] | other results
Cc1c[nH]c(-c2cnc(NCCNc3ccc(C#N)cn3)nc2-c2ccc(Cl)cc2Cl)n1 [CHIR] | increased differentiation to the LHX1+ state | – | Cell release from substrate and compaction [2]: induced cell release from their substrate and compaction
Cc1cncc2cccc(S(=O)(=O)N3CCCNC[C@@H]3C)c12 [H1152] | – | – | Nephron formation, high dose ([3]; high dose H1152): decreases in nephron formation; Nephron formation, low dose ([3]; low dose H1152): increases in nephron formation
Cc1ccc2c(c1)C(=O)[C@]1(O)CCN(c3ccccc3)C1=N2 [blebbistatin, (S)-(−)-blebbistatin] | – | synergistic effect | –
C[C@@H](N)[C@H]1CC[C@H](C(=O)Nc2ccncc2)CC1 [Y-27632] | did not by itself induce LHX1+ cells | synergistic effect | SIX2+ nephron progenitors in spheroids (marker positive pixel area as % of projection area) ([1]; 10 μM Y27632 in FGF9 basal media, without CHIR): increased cell conversion to and/or self-renewal of SIX2+ progenitors
